# Data as given in patent US12421253B2 (Mirati Therapeutics, Inc., priority 2020, dated 2025).
# What was measured:
# KRas^WT = molecular target: T1, KRas^WT (Homo sapiens, UniProt P01116); test: KRas binding assay (TR-FRET displacement of Cy5 labelled tracer)
# T1 construct: […]; biotin (biotinylated); purchased Accelegan Inc
# KRas^G12A = molecular target: T2, KRas^G12A (Homo sapiens, UniProt P01116, G12A); test: as above
# T2 construct: […]; biotin (biotinylated); purchased Accelegan Inc
# KRas^G12D = molecular target: T3, KRas^G12D (Homo sapiens, UniProt P01116, G12D); test: as above
# T3 construct: […]; biotin (biotinylated); purchased Accelegan Inc
# T3 sequence (P01116 1-169 isoform P01116-2 G12D): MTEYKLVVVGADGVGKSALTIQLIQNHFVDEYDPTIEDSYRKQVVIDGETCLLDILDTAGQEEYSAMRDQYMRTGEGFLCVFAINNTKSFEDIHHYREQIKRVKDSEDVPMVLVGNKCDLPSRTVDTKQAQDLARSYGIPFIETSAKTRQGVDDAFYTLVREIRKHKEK
# KRas^G12R = molecular target: T4, KRas^G12R (Homo sapiens, UniProt P01116, G12R); test: as above
# T4 construct: […]; biotin (biotinylated); purchased Accelegan Inc
# T4 sequence (P01116 1-169 isoform P01116-2 G12R): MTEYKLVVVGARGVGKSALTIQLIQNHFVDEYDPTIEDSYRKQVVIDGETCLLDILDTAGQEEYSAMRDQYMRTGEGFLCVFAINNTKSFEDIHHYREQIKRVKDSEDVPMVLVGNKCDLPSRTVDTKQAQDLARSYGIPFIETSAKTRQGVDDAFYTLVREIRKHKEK
# KRas^G12S = molecular target: T5, KRas^G12S (Homo sapiens, UniProt P01116, G12S); test: as above
# T5 construct: […]; biotin (biotinylated); purchased Accelegan Inc
# T5 sequence (P01116 1-169 isoform P01116-2 G12S): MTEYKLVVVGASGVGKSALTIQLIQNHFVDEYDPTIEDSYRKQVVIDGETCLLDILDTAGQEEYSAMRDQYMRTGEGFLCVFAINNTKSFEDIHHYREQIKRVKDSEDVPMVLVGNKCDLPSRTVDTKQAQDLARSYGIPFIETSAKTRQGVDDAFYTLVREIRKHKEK
# KRas^G12V = molecular target: T6, KRas^G12V (Homo sapiens, UniProt P01116, G12V); test: as above
# T6 construct: […]; biotin (biotinylated); purchased Accelegan Inc
# T6 sequence (P01116 1-169 isoform P01116-2 G12V): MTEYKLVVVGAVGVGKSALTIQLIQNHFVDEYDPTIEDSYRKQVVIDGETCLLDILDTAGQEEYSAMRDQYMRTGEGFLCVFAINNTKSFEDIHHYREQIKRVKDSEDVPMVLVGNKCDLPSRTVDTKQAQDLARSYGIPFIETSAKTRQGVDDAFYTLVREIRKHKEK
# KRas^G12C = KRas^G12C (Homo sapiens, UniProt P01116, G12C); test: biochemical
# Chain of KRas^G12C (P01116 1-169 isoform P01116-2 G12C): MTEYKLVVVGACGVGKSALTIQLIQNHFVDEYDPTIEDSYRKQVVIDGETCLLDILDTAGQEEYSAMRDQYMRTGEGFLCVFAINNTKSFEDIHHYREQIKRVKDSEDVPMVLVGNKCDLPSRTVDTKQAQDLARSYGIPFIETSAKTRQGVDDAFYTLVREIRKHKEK
# KRas^G13D = KRas^G13D (Homo sapiens, UniProt P01116, G13D); test: biochemical
# Chain of KRas^G13D (P01116 1-169 isoform P01116-2 G13D): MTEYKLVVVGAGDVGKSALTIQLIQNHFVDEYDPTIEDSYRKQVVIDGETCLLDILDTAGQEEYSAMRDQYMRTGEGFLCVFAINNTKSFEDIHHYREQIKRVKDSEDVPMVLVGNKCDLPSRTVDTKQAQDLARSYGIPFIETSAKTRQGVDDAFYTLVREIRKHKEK
# KRas^Q61H = KRas^Q61H (Homo sapiens, UniProt P01116, Q61H); test: biochemical
# Chain of KRas^Q61H (P01116 1-169 isoform P01116-2 Q61H): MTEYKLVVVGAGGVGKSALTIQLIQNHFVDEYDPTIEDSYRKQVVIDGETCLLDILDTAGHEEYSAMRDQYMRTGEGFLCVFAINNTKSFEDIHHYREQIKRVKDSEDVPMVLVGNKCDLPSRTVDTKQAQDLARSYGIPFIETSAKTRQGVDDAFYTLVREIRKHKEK
# T1 sequence (P01116 1-169 isoform P01116-2): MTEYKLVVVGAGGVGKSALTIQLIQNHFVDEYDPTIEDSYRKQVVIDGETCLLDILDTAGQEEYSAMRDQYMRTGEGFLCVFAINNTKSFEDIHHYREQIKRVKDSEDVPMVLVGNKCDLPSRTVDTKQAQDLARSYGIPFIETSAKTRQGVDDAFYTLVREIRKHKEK
# T2 sequence (P01116 1-169 isoform P01116-2 G12A): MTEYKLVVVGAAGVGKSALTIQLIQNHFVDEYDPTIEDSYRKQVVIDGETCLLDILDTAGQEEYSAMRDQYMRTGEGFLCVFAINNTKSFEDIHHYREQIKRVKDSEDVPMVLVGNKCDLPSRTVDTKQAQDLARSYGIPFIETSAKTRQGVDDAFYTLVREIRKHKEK
IC50 (KRas^WT),IC50 (KRas^G12A),IC50 (KRas^G12D),IC50 (KRas^G12R),IC50 (KRas^G12S),IC50 (KRas^G12V),IC50 (KRas^G12C),IC50 (KRas^G13D),IC50 (KRas^Q61H),Compound
54 nM,128 nM,192 nM,168 nM,154 nM,165 nM,115 nM,66 nM,76 nM,"CCc1cccc2cccc(N3CCc4c(nc(OCC56CCCN5CCC6)nc4N4CCOCC(n5cccn5)C4)C3)c12 (stereo not drawn) [Example 9, 4-(7-(8-ethylnaphthalen-1-yl)-2-((tetrahydro-1H-pyrrolizin-7a(5H)-yl)methoxy)-5,6,7,8-tetrahydropyrido[3,4-d]pyrimidin-4-yl)-6-(1H-pyrazol-1-yl)-1,4-oxazepane]"
4260 nM,5900 nM,720 nM,3290 nM,2910 nM,2750 nM,2740 nM,5680 nM,5450 nM,"CCc1cccc2cccc(N3CCc4c(nc(OCC56CCCN5CCC6)nc4NC4CC(=O)N(c5cnn(C)c5)C4)C3)c12 (stereo not drawn) [Example 126, 4-((7-(8-ethylnaphthalen-1-yl)-2-((tetrahydro-1H-pyrrolizin-7a(5H)-yl)methoxy)-5,6,7,8-tetrahydropyrido[3,4-d]pyrimidin-4-yl)amino)-1-(1-methyl-1H-pyrazol-4-yl)pyrrolidin-2-one]"
2900 nM,2080 nM,1160 nM,744 nM,1160 nM,1100 nM,893 nM,3860 nM,4550 nM,"CCc1cccc2cccc(N3CCc4c(nc(OCC56CCCN5CCC6)nc4N4CCCc5ncccc5C4)C3)c12 [Example 55, 6-(7-(8-ethylnaphthalen-1-yl)-2-((hexahydro-1H-pyrrolizin-7a-yl)methoxy)-5,6,7,8-tetrahydropyrido[3,4-d]pyrimidin-4-yl)-6,7,8,9-tetrahydro-5H-pyrido[3,2-c]azepine]"
444 nM,453 nM,1070 nM,514 nM,482 nM,341 nM,330 nM,629 nM,537 nM,"CCc1cccc2cccc(N3CCc4c(nc(OCC56CCCN5CCC6)nc4N(C)CC4(O)CC4)C3)c12 [Example 98, 1-(((7-(8-ethylnaphthalen-1-yl)-2-((tetrahydro-1H-pyrrolizin-7a(5H)-yl)methoxy)-5,6,7,8-tetrahydropyrido[3,4-d]pyrimidin-4-yl)(methyl)amino)methyl)cyclopropan-1-ol]"
143 nM,92 nM,121 nM,50 nM,107 nM,68 nM,89 nM,143 nM,173 nM,"CCc1cccc2cccc(N3CCc4c(nc(OCC56CCCN5CCC6)nc4N4CCCC(O)CC4)C3)c12 (stereo not drawn) [Example 7, 1-(7-(8-ethylnaphthalen-1-yl)-2-((tetrahydro-1H-pyrrolizin-7a(5H)-yl)methoxy)-5,6,7,8-tetrahydropyrido[3,4-d]pyrimidin-4-yl)azepan-4-ol]"

# The next lines start with the compound.
Compound,IC50 (KRas^WT),IC50 (KRas^G12A),IC50 (KRas^G12D),IC50 (KRas^G12R),IC50 (KRas^G12S),IC50 (KRas^G12V),IC50 (KRas^G12C),IC50 (KRas^G13D),IC50 (KRas^Q61H)
"CCc1cccc2cccc(N3CCc4c(nc(OCC56CCCN5CCC6)nc4N4C[C@@H]5C(=O)NC(=O)[C@@H]5C4)C3)c12 [Example 11, (3aR,6aS)-5-(7-(8-ethylnaphthalen-1-yl)-2-((tetrahydro-1H-pyrrolizin-7a(5H)-yl)methoxy)-5,6,7,8-tetrahydropyrido[3,4-d]pyrimidin-4-yl)tetrahydropyrrolo[3,4-c]pyrrole-1,3(2H,3aH)-dione]",51 nM,45 nM,22 nM,42 nM,15 nM,18 nM,41 nM,42 nM,50 nM
"CCc1cccc2cccc(N3CCc4c(nc(OCC56CCCN5CCC6)nc4N4CCCC(c5ccno5)C4)C3)c12 (stereo not drawn) [Example 99, 5-(1-(7-(8-ethylnaphthalen-1-yl)-2-((tetrahydro-1H-pyrrolizin-7a(5H)-yl)methoxy)-5,6,7,8-tetrahydropyrido[3,4-d]pyrimidin-4-yl)piperidin-3-yl)isoxazole]",1240 nM,1250 nM,3010 nM,338 nM,1250 nM,958 nM,1000 nM,1560 nM,1130 nM
"CCc1cccc2cccc(N3CCc4c(nc(OCC56CCCN5CCC6)nc4N4CCn5ncc(S(C)(=O)=O)c5C4)C3)c12 [Example 144, 7-(8-ethylnaphthalen-1-yl)-4-(3-(methylsulfonyl)-6,7-dihydropyrazolo[1,5-a]pyrazin-5(4H)-yl)-2-((tetrahydro-1H-pyrrolizin-7a(5H)-yl)methoxy)-5,6,7,8-tetrahydropyrido[3,4-d]pyrimidine]",7510 nM,8490 nM,1260 nM,11100 nM,5680 nM,6280 nM,4980 nM,10100 nM,10600 nM
"CCc1cccc2cccc(N3CCc4c(nc(OCC56CCCN5CCC6)nc4NCc4cccnc4-n4cncn4)C3)c12 [Example 142, N-((2-(1H-1,2,4-triazol-1-yl)pyridin-3-yl)methyl)-7-(8-ethylnaphthalen-1-yl)-2-((tetrahydro-1H-pyrrolizin-7a(5H)-yl)methoxy)-5,6,7,8-tetrahydropyrido[3,4-d]pyrimidin-4-amine]",7520 nM,2320 nM,10500 nM,1720 nM,1870 nM,1380 nM,1250 nM,13100 nM,7250 nM
"CCc1cccc2cccc(N3CCc4c(nc(OCC56CCCN5CCC6)nc4N4CCCC(c5nc(=O)[nH][nH]5)C4)C3)c12 (stereo not drawn) [Example 104, 5-(1-(7-(8-ethylnaphthalen-1-yl)-2-((tetrahydro-1H-pyrrolizin-7a(5H)-yl)methoxy)-5,6,7,8-tetrahydropyrido[3,4-d]pyrimidin-4-yl)piperidin-3-yl)-1,2-dihydro-3H-1,2,4-triazol-3-one]",1590 nM,755 nM,4200 nM,365 nM,1120 nM,852 nM,894 nM,1800 nM,1980 nM
"CCc1cccc2cccc(N3CCc4c(nc(OCC56CCCN5CCC6)nc4NCc4nnc(CSC)[nH]4)C3)c12 [Example 161, 7-(8-ethylnaphthalen-1-yl)-N-((5-((methylthio)methyl)-4H-1,2,4-triazol-3-yl)methyl)-2-((tetrahydro-1H-pyrrolizin-7a(5H)-yl)methoxy)-5,6,7,8-tetrahydropyrido[3,4-d]pyrimidin-4-amine]",27400 nM,21700 nM,7690 nM,14600 nM,15000 nM,2740 nM,6790 nM,25200 nM,21300 nM
"CCc1cccc2cccc(N3CCc4c(nc(OCC56CCCN5CCC6)nc4N4Cc5ccnn5CC(O)C4)C3)c12 (stereo not drawn) [Example 50, 5-(7-(8-ethylnaphthalen-1-yl)-2-((hexahydro-1H-pyrrolizin-7a-yl)methoxy)-5,6,7,8-tetrahydropyrido[3,4-d]pyrimidin-4-yl)-5,6,7,8-tetrahydro-4H-pyrazolo[1,5-a][1,4]diazepin-7-ol]",613 nM,569 nM,219 nM,284 nM,330 nM,342 nM,299 nM,800 nM,808 nM
